Data set [1] concerns Scirpus juncoides Roxb. Kind of data set: Test Example 6: pot test, herbicide-treated seed, growth inhibition. Format: in vivo. The conditions noted are these: 20 days after sowing, dosage a.i. g per 1 kg of seeds: Pyrimisulfan 0.5, Pyriminobac-methyl 1.5, Butachlor 1.25.
Excerpt: (§3) In 100 cm^2 of a pot was filled a paddy field soil, and after paddling, seeds of Echinochloa oryzicola and Scirpus juncoides Roxb. were sown and mixed into the surface layer of the soil. Paddy rice seeds (variety: Nipponbare) sprouted into a pigeon breast shape were dust-coated with a predetermined amount of wettable powder each prepared according to Preparation examples 5, 6 and 9, and were sown onto the surface of the soil or into the soil (depth: 1 cm) at an amount of 10 grains/pot. After the sowing, water was introduced quietly and flooded up to 1 cm. After 20 days from the sowing, a growth inhibition rate was judged according to the above-mentioned judgement criteria.
Data set [2] has as its system Echinochloa oryzicola. Described as above. In kind it is in vivo. The conditions noted are these: 20 days after sowing, dosage a.i. g per 1 kg of seeds: Pyrimisulfan 0.5, Pyriminobac-methyl 1.5, Butachlor 1.25.
Excerpt: as §3
The subject of data set [3] is Echinochloa oryzicola. Nature of the data set: Test Example 7: pot test, seed dust-coated with COMMAND3ME, growth inhibition. Format: in vivo. The conditions noted are these: Surface sowing; 21 days after sowing; dosage 2.5 a.i. g per 1 kg of seeds (as COMMAND3ME).
Excerpt: In 100 cm^2 of a pot was filled a paddy field soil, and after paddling, seeds of Echinochloa oryzicola was sown and mixed into the surface layer of the soil. Paddy rice seeds (variety: Nipponbare) sprouted into a pigeon breast shape were dust-coated with a predetermined amount of COMMAND3ME™ (clomazone: 31.4%, available from FMC Corporation), and were sown onto the surface of the soil at an amount of 10 grains/pot. After the sowing, water was introduced quietly and flooded up to 1 cm. After 21 days from the sowing, a growth inhibition rate was judged according to the above-mentioned judgement criteria.
Data set [4] deals with Paddy rice (variety: Koshihikari). Nature of the data set: Test Example 2: pot test, iron powder-coated seed, growth inhibition of the paddy rice. Format: in vivo. The conditions noted are these: surface sowing, 21 days after sowing, dosage a.i. g per 1 kg of seeds: Pyrazolate 150, Compound (I) 38, Sulcotrione 1.0, Imazosulfuron 1.0. The procedure: (§1) Also, paddy rice seeds (variety: Koshihikari) dipped in 20° C. of water for 2 days were dust-coated with a mixture of iron powder and calcined gypsum (a mixing ratio of 10:1) with an amount of 100 g per 1 kg of the seeds (dried unhulled rice) to prepare iron powder-coated seeds.

In data set [5] the test system is Monochoria vaginalis. Nature of the data set: Test Example 1: pot test, herbicide-treated paddy rice seed, growth inhibition. In kind it is in vivo. The conditions noted are these: 30 days after sowing, dosage a.i. g per 1 kg of seeds: Pyrazolate 150, Compound (I) 37.5, Thenylchlor 0.63. From the text: (§2) In 100 cm^2 of a pot was filled a paddy field soil, and after paddling, seeds of Monochoria vaginalis and Lindernia procumbens were sown and mixed into the surface layer of the soil. Paddy rice seeds (variety: Nipponbare) sprouted into a pigeon breast shape were dust-coated with a predetermined amount of wettable powder each prepared according to Preparation examples 1, 2 and 7, and were sown onto the surface of the soil or into the soil (depth: 1 cm) at an amount of 10 grains/pot. After the sowing, water was introduced quietly and flooded up to 1 cm. After 30 days from the sowing, a growth inhibition rate was judged according to the following judgement criteria.

Data set [6] concerns Lindernia procumbens. The description is as above. In kind it is in vivo. The conditions noted are these: 30 days after sowing, dosage a.i. g per 1 kg of seeds: Pyrazolate 150, Compound (I) 37.5, Thenylchlor 0.63.
Excerpt: as §2

Data set [7] deals with Paddy rice (variety: Nipponbare). Nature of the data set: Test Example 1: pot test, growth inhibition (chemical damage) of the paddy rice. In kind it is in vivo. The conditions noted are these: 30 days after sowing, dosage a.i. g per 1 kg of seeds: Pyrazolate 150, Compound (I) 37.5, Thenylchlor 0.63.
Excerpt: as §2

Data set [8] deals with Monochoria vaginalis. Nature of the data set: Test Example 2: pot test, iron powder-coated herbicide-treated seed, growth inhibition. Format: in vivo. The conditions noted are these: surface sowing, 21 days after sowing, dosage a.i. g per 1 kg of seeds: Pyrazolate 150, Compound (I) 38, Sulcotrione 1.0, Imazosulfuron 1.0. The procedure:
as §1

For data set [9], the system named is Lindernia procumbens. Described as above. Format: in vivo. The conditions noted are these: surface sowing, 21 days after sowing, dosage a.i. g per 1 kg of seeds: Pyrazolate 150, Compound (I) 38, Sulcotrione 1.0, Imazosulfuron 1.0. The method, then:
as §1

Data set [10] concerns Scirpus juncoides Roxb. Nature of the data set: Test Example 5: pot test, herbicide-treated seed, growth inhibition. In kind it is in vivo. As to conditions: 20 days after sowing, dosage a.i. g per 1 kg of seeds: Sulcotrione 1.0, Imazosulfuron 1.0, Oxadiargyl 0.15.
Excerpt: (§4) In 100 cm^2 of a pot was filled a paddy field soil, and after paddling, seeds of Lindernia procumbens and Scirpus juncoides Roxb. were sown and mixed into the surface layer of the soil. Paddy rice seeds (variety: Nipponbare) sprouted into a pigeon breast shape were dust-coated with a predetermined amount of wettable powder each prepared according to Preparation examples 3, 4 and 8, and were sown onto the surface of the soil or into the soil (depth: 1 cm) at an amount of 10 grains/pot. After the sowing, water was introduced quietly and flooded up to 1 cm. After 20 days from the sowing, a growth inhibition rate was judged according to the following judgement criteria.
Data set [11] deals with Lindernia procumbens. The data set is described as above. In kind it is in vivo. The conditions noted are these: 20 days after sowing, dosage a.i. g per 1 kg of seeds: Sulcotrione 1.0, Imazosulfuron 1.0, Oxadiargyl 0.15.
Excerpt: as §4
The subject of data set [12] is Scirpus juncoides Roxb. Nature of the data set: Test Example 3: pot test, iron powder-coated herbicide-treated seed, growth inhibition. Format: in vivo. As to conditions: surface sowing, 22 days after sowing, dosage a.i. g per 1 kg of seeds: Pyrimisulfan 0.5, Pyriminobac-methyl 1.5. The procedure: as §1
The test system of data set [13] is Echinochloa oryzicola. The data set is described as above. As to conditions: surface sowing, 22 days after sowing, dosage a.i. g per 1 kg of seeds: Pyrimisulfan 0.5, Pyriminobac-methyl 1.5. In kind it is in vivo. The procedure: as §1
In data set [14] the test system is Paddy rice (variety: Nipponbare). Kind of data set: Test Example 6: pot test, growth inhibition of the paddy rice. Format: in vivo. The conditions noted are these: 20 days after sowing, dosage a.i. g per 1 kg of seeds: Pyrimisulfan 0.5, Pyriminobac-methyl 1.5, Butachlor 1.25.
Excerpt: as §3
Data set [15] relates to Paddy rice (variety: Koshihikari). Nature of the data set: Test Example 3: pot test, iron powder-coated seed, growth inhibition of the paddy rice. As to conditions: surface sowing, 22 days after sowing, dosage a.i. g per 1 kg of seeds: Pyrimisulfan 0.5, Pyriminobac-methyl 1.5. Format: in vivo. The procedure:
as §1

Data set [16] concerns Monochoria vaginalis. Kind of data set: Test Example 10: pot test, seed treated with herbicide with or without dymron, growth inhibition. Format: in vivo. As to conditions: Surface sowing; 20 days after sowing; dosage a.i. g per 1 kg of seeds: Pyrimisulfan + Dymron 1 + 40, Pyrimisulfan 1.
Excerpt: as §2, with “5” for “1, 2”, “11,” for “7,”, “soil” for “soil or into the soil (depth: 1 cm)”, “20” for “30”, “above-mentioned” for “following”

Data set [17] relates to Lindernia procumbens. Described as above. In kind it is in vivo. The conditions noted are these: Surface sowing; 20 days after sowing; dosage a.i. g per 1 kg of seeds: Pyrimisulfan + Dymron 1 + 40, Pyrimisulfan 1.
Excerpt: as §2, with “5” for “1, 2”, “11,” for “7,”, “soil” for “soil or into the soil (depth: 1 cm)”, “20” for “30”, “above-mentioned” for “following”

Data set [18] relates to Paddy rice (variety: Nipponbare). Nature of the data set: Test Example 5: pot test, growth inhibition of the paddy rice. Format: in vivo. The conditions noted are these: 20 days after sowing, dosage a.i. g per 1 kg of seeds: Sulcotrione 1.0, Imazosulfuron 1.0, Oxadiargyl 0.15.
Excerpt: as §4
The subject of data set [19] is paddy rice varieties Habataki, Takanari, Momiroman, Mizuhochikara, Ruriaoba and Odorokimochi. As to conditions: Japanese Journal of Crop Science 79 (Extra 1); cited from earlier work.
Where [20] appears, read: Surface sowing of treated rice seed.

Data on 11 compounds can be found in patent US9451774B2, “Paddy rice seed treated by herbicidal composition and method for controlling weed” (MITSUI CHEMICALS AGRO, INC., priority 2013, dated 2016).

As to `CCCCOCN(C(=O)CCl)c1c(CC)cccc1CC` [Butachlor, butachlor], the “Growth inhibition rate, Scirpus juncoides Roxb.” value in data set [1] (Sowing into soil (depth 1 cm)) and in data set [1] (Surface sowing) was 0 (Growth inhibition rate of 0 to 9%) throughout. The “Growth inhibition rate, Echinochloa oryzicola” value is 5 (Growth inhibition rate of 46 to 54%) in data set [2] (Sowing into soil (depth 1 cm)) and 7 (Growth inhibition rate of 64 to 72%) in [2] (Surface sowing).
As for `CC1(C)CON(Cc2ccccc2Cl)C1=O` [Clomazone, clomazone], in data set [3], the “Growth inhibition rate, Echinochloa oryzicola” value is given as 9 (Growth inhibition rate of 82 to 90%).
Regarding `Cc1cccc(C2CC2)c1Oc1nnc(Cl)cc1OC(=O)N1CCOCC1` [Compound (I), 6-chloro-3-(2-cyclopropyl-6-methylphenoxy)pyridazin-4-yl morpholin-4-carboxylate], the “Growth inhibition rate, Paddy rice” value in [4] is given as 0 (Growth inhibition rate of 0 to 9%); in data set [7] (Sowing into soil (depth 1 cm)), 5 (Growth inhibition rate of 46 to 54%); in data set [7] (Surface sowing), 0 (Growth inhibition rate of 0 to 9%). Besides, the “Growth inhibition rate, Monochoria vaginalis” value in data set [5] (Sowing into soil (depth 1 cm)) was 9 (Growth inhibition rate of 82 to 90%); in data set [5] (setting [20]) it was 10 (Growth inhibition rate of 91 to 100%); in data set [8], 10 (Growth inhibition rate of 91 to 100%). Besides, the “Growth inhibition rate, Lindernia procumbens” value in [6] (Sowing into soil (depth 1 cm)) was 8 (Growth inhibition rate of 73 to 81%); in data set [6] (setting [20]), 10 (Growth inhibition rate of 91 to 100%); in data set [9], 10 (Growth inhibition rate of 91 to 100%).
As to `COc1cc(OC)nc(NC(=O)NS(=O)(=O)c2c(Cl)nc3ccccn23)n1` [Imazosulfuron, imazosulfuron], the “Growth inhibition rate, Scirpus juncoides Roxb.” value was 9 (Growth inhibition rate of 82 to 90%) in data set [10] (Sowing into soil (depth 1 cm)) and 10 (Growth inhibition rate of 91 to 100%) in data set [10] (Surface sowing). In addition, the “Growth inhibition rate, Monochoria vaginalis” value in [8] is 10 (Growth inhibition rate of 91 to 100%). The “Growth inhibition rate, Lindernia procumbens” value in data set [9], in data set [11] (Sowing into soil (depth 1 cm)) and in data set [11] (Surface sowing) was 10 (Growth inhibition rate of 91 to 100%) in each case.
Consider `CO/N=C(/C)c1cccc(Oc2nc(OC)cc(OC)n2)c1C(=O)OC` [Pyriminobac-methyl, pyriminobac-methyl], for which the “Growth inhibition rate, Scirpus juncoides Roxb.” value in [12], in data set [1] (Sowing into soil (depth 1 cm)) and in [1] (Surface sowing) was 0 (Growth inhibition rate of 0 to 9%) throughout. Moreover, the “Growth inhibition rate, Echinochloa oryzicola” value in data set [13], in data set [2] (Sowing into soil (depth 1 cm)) and in data set [2] (Surface sowing) was 10 (Growth inhibition rate of 91 to 100%) throughout. For the same compound, the figures for the “Growth inhibition rate, Paddy rice” value in [14] (Sowing into soil (depth 1 cm)), in data set [14] (Surface sowing) and in data set [15] were 3 (Growth inhibition rate of 28 to 36%), 0 (Growth inhibition rate of 0 to 9%) and 0 (Growth inhibition rate of 0 to 9%), respectively.
On to `COCc1cccc(C(O)c2nc(OC)cc(OC)n2)c1NS(=O)(=O)C(F)F` (stereo not shown) [Pyrimisulfan, pyrimisulfan], for which the “Growth inhibition rate, Monochoria vaginalis” value in [16] is recorded as 10 (Growth inhibition rate of 91 to 100%). Moreover, the “Growth inhibition rate, Lindernia procumbens” value in data set [17] is on record as 10 (Growth inhibition rate of 91 to 100%). Also, the “Growth inhibition rate, Scirpus juncoides Roxb.” value in data set [12], in data set [1] (Sowing into soil (depth 1 cm)) and in [1] (Surface sowing) was 10 (Growth inhibition rate of 91 to 100%) throughout. The “Growth inhibition rate, Echinochloa oryzicola” value in data set [13] was 10 (Growth inhibition rate of 91 to 100%); in data set [2] (Sowing into soil (depth 1 cm)), 8 (Growth inhibition rate of 73 to 81%); in [2] (Surface sowing), 10 (Growth inhibition rate of 91 to 100%).
Regarding `CS(=O)(=O)c1ccc(C(=O)C2C(=O)CCCC2=O)c(Cl)c1` [Sulcotrione, sulcotrione], the results for the “Growth inhibition rate, Scirpus juncoides Roxb.” value in [10] (Sowing into soil (depth 1 cm)) and in data set [10] (Surface sowing) were 8 (Growth inhibition rate of 73 to 81%) and 9 (Growth inhibition rate of 82 to 90%), respectively. Also, the “Growth inhibition rate, Paddy rice” value was 0 (Growth inhibition rate of 0 to 9%) in data set [4], 3 (Growth inhibition rate of 28 to 36%) in data set [18] (Sowing into soil (depth 1 cm)) and 0 (Growth inhibition rate of 0 to 9%) in data set [18] (Surface sowing). Moreover, the “Growth inhibition rate, Monochoria vaginalis” value in [8] was 10 (Growth inhibition rate of 91 to 100%). Further, the “Growth inhibition rate, Lindernia procumbens” value in data set [9], in data set [11] (Sowing into soil (depth 1 cm)) and in [11] (Surface sowing) was 10 (Growth inhibition rate of 91 to 100%) throughout.
For `COc1ccsc1CN(C(=O)CCl)c1c(C)cccc1C` [Thenylchlor, thenylchlor], the “Growth inhibition rate, Monochoria vaginalis” value in data set [5] (Sowing into soil (depth 1 cm)) is 6 (Growth inhibition rate of 55 to 63%); in [5] (setting [20]), 7 (Growth inhibition rate of 64 to 72%). Besides, the “Growth inhibition rate, Lindernia procumbens” value in data set [6] (Sowing into soil (depth 1 cm)) is recorded as 8 (Growth inhibition rate of 73 to 81%); in data set [6] (setting [20]) it was 9 (Growth inhibition rate of 82 to 90%). For the same compound, the “Growth inhibition rate, Paddy rice” value was 9 (Growth inhibition rate of 82 to 90%) in data set [7] (Sowing into soil (depth 1 cm)) and 6 (Growth inhibition rate of 55 to 63%) in [7] (Surface sowing).
Consider `CS(=O)(=O)c1ccc(C(=O)C2=C(Sc3ccccc3)C3CCC(C3)C2=O)c(Cl)c1` (stereo not shown) [benzobicyclon], for which the “Sensitivity of paddy rice variety to the herbicide” value in data set [19] is “show sensitivity”.
Take `CS(=O)(=O)c1ccc(C(=O)C2C(=O)CCCC2=O)c([N+](=O)[O-])c1` [mesotrione]: the “Sensitivity of paddy rice variety to the herbicide” value in [19] is on record as “show sensitivity”.
oxadiargyl: the results for the “Growth inhibition rate, Scirpus juncoides Roxb.” value in [10] (Sowing into soil (depth 1 cm)) and in data set [10] (Surface sowing) were 1 (Growth inhibition rate of 10 to 18%) and 2 (Growth inhibition rate of 19 to 27%), respectively. Also, the “Growth inhibition rate, Lindernia procumbens” value in data set [11] (Sowing into soil (depth 1 cm)) and in data set [11] (Surface sowing) was 10 (Growth inhibition rate of 91 to 100%) each time.
